{"source": "patent US20260248087A1", "about": "“GENERATING DOUBLED HAPLOID PLANTS” (Syngenta Crop Protection AG, priority 2023, published 2026)", "key": {"GST27": {"tested_on": "GST27", "assay": "GST27 induction, metcamifen co-treatment of isolated embryos during colchicine doubling", "type": "cell-based, maize", "settings": "for GST27 Induction Mean: co-treatment with colchicine", "description": "For the examples below, GST27 was used as a quick indicator for treatment effectiveness.\nIsolated embryos were treated with metcamifen during colchicine doubling (also referred to as co-treatment). Metcamifen was added in the colchicine co-treatment media (a.k.a. doubling media) as a formulation at concentrations of 0, 200, 400, 800, 1200 mg/L. Metcamifen concentrations tested for a 24-hour duration ranged from 0-1000 mg/L. Metcamifen concentrations tested for a 48-hour condition ranged from 0-1200 mg/L. Three to four genotypes representing two heterotic groups were tested.\nInitial testing on three genotypes included co-treatment of metcamifen and colchicine in Gelzan media at 28° C. with 150 PAR light at concentrations of 0, 200, and 1000 mg/L to identify a range of working concentrations. The 200 and 1000 mg/L concentrations induced similar GST27 expression levels for both the 24- and 48-hour durations. The resulting induction was higher (400 ng/mg TSP GST27) than recorded with pre-treatments of ears or isolated embryos. […] Metcamifen co-treatment of isolated embryos optimization continued by testing levels of 0, 400, 600, and 800 mg/L for 24 and 48 hours with 4 genotypes across 2 heterotic groups. GST induction (ng/mg TSP) was measured after metcamifen co-treatment. […] The percent potted rate after metcamifen co-treatment was similar for both time durations when sorted by genotype or heterotic group."}, "doubled haploids": {"tested_on": "doubled haploids", "assay": "Potting rate, thiamethoxam post-treatment during germination", "type": "in vivo, maize", "settings": "14-21 days", "excerpt": "(§1) As used herein, the term “potted rate” or “potting rate” refers to the percent of germinated embryos successfully transferred to soil from total treated haploid embryos. The “potted rate” is used as an indication of plant health in monitoring the success of recovery and growth after treatment of haploids. As used herein, the term “transplant rate” refers to the survival of healthy plants after embryos were germinated and transferred to soil.\nTMX was applied to doubled haploids by adding it to the germination media during the germination process. TMX was tested in 3 genotypes, in triplicate, with concentrations ranging from […], and the post-treatments incubated for 14 to 21 days (the normal duration of the regeneration period before transplant). The effect on potting rate was evaluated (see Table 12); no plants were advanced for transplant rate assessments due to poor germination."}, "isolated embryos": {"tested_on": "isolated embryos", "assay": "Potted rate, transplant rate and seedling height, thiamethoxam co-treatment during colchicine doubling", "type": "in vivo, maize", "excerpt": "as §1\nIn addition to testing of safeners such as metcamifen, testing the effects of other compounds, such as thiamethoxam (TMX), were completed. Isolated embryos were co-treated with TMX during colchicine doubling in the doubling media. The co-treatments were allowed to incubate for 24 or 48 hours. Four genotypes representing two heterotic groups were tested with replication. The effect on potting rate from in vitro culture was evaluated.\nInitial testing measured the effect of TMX at concentrations of 0, 150, or 750 mg/L for 24 or 48 hours. […] The strongest effect of TMX co-treatment seen with the 48-hour duration was at 750 mg/L TMX compared to the control.\nFurther testing was done and TMX was applied to isolated embryos at levels of 0, 750, 1500, 2000 mg/L during colchicine co-treatment. The co-treatments were incubated for 24 or 48 hours.\nTMX was applied to isolated embryos at levels of 0, 2000, 4000, 8000 mg/L during colchicine co-treatment. The co-treatments were incubated for durations of 24 or 48 hours.\nTMX was applied to isolated embryos at levels of 0, 2000, 4000, or 6000 mg/L during colchicine co-treatment. The co-treatments were incubated for durations of 24 or 48 hours. […] The highest percent transplanted rates were 86% and 83% for co-treatments 4000 mg/L at 24 hours and 6000 mg/L at 48 hours, respectively (see Table 8)."}, "[1]": {"settings": "Table 6: co-treatment with colchicine, TMX 750 mg/L, 24 hours"}, "[2]": {"settings": "Table 6: co-treatment with colchicine, TMX 750 mg/L, 48 hours"}, "[3]": {"settings": "Table 6: co-treatment with colchicine, TMX 1500 mg/L, 24 hours"}, "[4]": {"settings": "Table 6: co-treatment with colchicine, TMX 1500 mg/L, 48 hours"}, "[5]": {"settings": "Table 6: co-treatment with colchicine, TMX 2000 mg/L, 24 hours"}, "[6]": {"settings": "Table 6: co-treatment with colchicine, TMX 2000 mg/L, 48 hours"}, "[7]": {"settings": "Table 7: co-treatment with colchicine, TMX 2000 mg/L, 24 hours"}, "[8]": {"settings": "Table 7: co-treatment with colchicine, TMX 2000 mg/L, 48 hours"}, "[9]": {"settings": "Table 7: co-treatment with colchicine, TMX 4000 mg/L, 24 hours"}, "[10]": {"settings": "Table 7: co-treatment with colchicine, TMX 4000 mg/L, 48 hours"}, "[11]": {"settings": "Table 7: co-treatment with colchicine, TMX 8000 mg/L, 24 hours"}, "[12]": {"settings": "Table 7: co-treatment with colchicine, TMX 8000 mg/L, 48 hours"}, "[13]": {"settings": "Table 8: co-treatment with colchicine, TMX 2000 mg/L, 24 hours"}, "[14]": {"settings": "Table 8: co-treatment with colchicine, TMX 2000 mg/L, 48 hours"}, "[15]": {"settings": "Table 8: co-treatment with colchicine, TMX 4000 mg/L, 24 hours"}, "[16]": {"settings": "Table 8: co-treatment with colchicine, TMX 4000 mg/L, 48 hours"}, "[17]": {"settings": "Table 8: co-treatment with colchicine, TMX 6000 mg/L, 24 hours"}, "[18]": {"settings": "Table 8: co-treatment with colchicine, TMX 6000 mg/L, 48 hours"}}}
{"smiles": "CNC(=O)Nc1ccc(S(=O)(=O)NC(=O)c2ccccc2OC)cc1", "note": "[Metcamifen, metcamifen]", "values": [{"measurement": "GST27 induction among 0, 400, 600, 800 mg/L", "setting": "GST27; 800 mg/L, 48-hour co-treatment, 4 genotypes", "result": "highest induction"}, {"measurement": "GST27 Induction Mean", "setting": "GST27; 200 mg/L, 24 hours", "result": 383.25, "unit": "ng/mg TSP"}, {"measurement": "GST27 Induction Mean", "setting": "GST27; 400 mg/L, 24 hours", "result": 396.13, "unit": "ng/mg TSP"}, {"measurement": "GST27 Induction Mean", "setting": "GST27; 400 mg/L, 48 hours", "result": 609.50, "unit": "ng/mg TSP"}, {"measurement": "GST27 Induction Mean", "setting": "GST27; 800 mg/L, 24 hours", "result": 489.38, "unit": "ng/mg TSP"}, {"measurement": "GST27 Induction Mean", "setting": "GST27; 800 mg/L, 48 hours", "result": 666.50, "unit": "ng/mg TSP"}, {"measurement": "GST27 Induction Mean", "setting": "GST27; 1200 mg/L, 48 hours", "result": 796.63, "unit": "ng/mg TSP"}, {"measurement": "GST27 induction", "setting": "GST27; initial testing, 200 and 1000 mg/L, 24- and 48-hour, Gelzan media, 28° C., three genotypes", "result": 400, "unit": "ng/mg TSP"}]}
{"smiles": "CN1COCN(Cc2cnc(Cl)s2)/C1=N\\[N+](=O)[O-]", "note": "[TMX, thiamethoxam]", "values": [{"measurement": "Potting Rate Mean", "setting": "doubled haploids; TMX 0.5 g/L", "result": 53, "unit": "%"}, {"measurement": "Potting Rate Mean", "setting": "doubled haploids; TMX 1 g/L", "result": 50, "unit": "%"}, {"measurement": "Potting Rate Mean", "setting": "doubled haploids; TMX 1.5 g/L", "result": 27, "unit": "%"}, {"measurement": "Potting Rate Mean", "setting": "doubled haploids; TMX 5 g/L", "result": 3, "unit": "%"}, {"measurement": "Potting Rate Mean", "setting": "doubled haploids; TMX 12 g/L", "result": 0, "unit": "%"}, {"measurement": "Potted Rate Mean", "setting": "isolated embryos; [1]", "result": 52, "unit": "%"}, {"measurement": "Transplant Rate Mean", "setting": "isolated embryos; [1]", "result": 33, "unit": "%"}, {"measurement": "Potted Rate Mean", "setting": "isolated embryos; [2]", "result": 12, "unit": "%"}, {"measurement": "Transplant Rate Mean", "setting": "isolated embryos; [2]", "result": 9, "unit": "%"}, {"measurement": "Potted Rate Mean", "setting": "isolated embryos; [3]", "result": 65, "unit": "%"}, {"measurement": "Transplant Rate Mean", "setting": "isolated embryos; [3]", "result": 41, "unit": "%"}, {"measurement": "Potted Rate Mean", "setting": "isolated embryos; [4]", "result": 18, "unit": "%"}, {"measurement": "Transplant Rate Mean", "setting": "isolated embryos; [4]", "result": 12, "unit": "%"}, {"measurement": "Potted Rate Mean", "setting": "isolated embryos; [5]", "result": 74, "unit": "%"}, {"measurement": "Transplant Rate Mean", "setting": "isolated embryos; [5]", "result": 50, "unit": "%"}, {"measurement": "Potted Rate Mean", "setting": "isolated embryos; [6]", "result": 32, "unit": "%"}, {"measurement": "Transplant Rate Mean", "setting": "isolated embryos; [6]", "result": 21, "unit": "%"}, {"measurement": "Potted Rate Mean", "setting": "isolated embryos; [7]", "result": 76, "unit": "%"}, {"measurement": "Transplant Rate Mean", "setting": "isolated embryos; [7]", "result": 73, "unit": "%"}, {"measurement": "Potted Rate Mean", "setting": "isolated embryos; [8]", "result": 22, "unit": "%"}, {"measurement": "Transplant Rate Mean", "setting": "isolated embryos; [8]", "result": 15, "unit": "%"}, {"measurement": "Potted Rate Mean", "setting": "isolated embryos; [9]", "result": 82, "unit": "%"}, {"measurement": "Transplant Rate Mean", "setting": "isolated embryos; [9]", "result": 79, "unit": "%"}, {"measurement": "Potted Rate Mean", "setting": "isolated embryos; [10]", "result": 67, "unit": "%"}, {"measurement": "Transplant Rate Mean", "setting": "isolated embryos; [10]", "result": 61, "unit": "%"}, {"measurement": "Potted Rate Mean", "setting": "isolated embryos; [11]", "result": 47, "unit": "%"}, {"measurement": "Transplant Rate Mean", "setting": "isolated embryos; [11]", "result": 45, "unit": "%"}, {"measurement": "Potted Rate Mean", "setting": "isolated embryos; [12]", "result": 20, "unit": "%"}, {"measurement": "Transplant Rate Mean", "setting": "isolated embryos; [12]", "result": 16, "unit": "%"}, {"measurement": "Potted Rate Mean", "setting": "isolated embryos; [13]", "result": 68, "unit": "%"}, {"measurement": "Transplant Rate Mean", "setting": "isolated embryos; [13]", "result": 62, "unit": "%"}, {"measurement": "Potted Rate Mean", "setting": "isolated embryos; [14]", "result": 27, "unit": "%"}, {"measurement": "Transplant Rate Mean", "setting": "isolated embryos; [14]", "result": 26, "unit": "%"}, {"measurement": "Potted Rate Mean", "setting": "isolated embryos; [15]", "result": 90, "unit": "%"}, {"measurement": "Transplant Rate Mean", "setting": "isolated embryos; [15]", "result": 86, "unit": "%"}, {"measurement": "Potted Rate Mean", "setting": "isolated embryos; [16]", "result": 63, "unit": "%"}, {"measurement": "Transplant Rate Mean", "setting": "isolated embryos; [16]", "result": 56, "unit": "%"}, {"measurement": "Potted Rate Mean", "setting": "isolated embryos; [17]", "result": 86, "unit": "%"}, {"measurement": "Transplant Rate Mean", "setting": "isolated embryos; [17]", "result": 74, "unit": "%"}, {"measurement": "Potted Rate Mean", "setting": "isolated embryos; [18]", "result": 89, "unit": "%"}, {"measurement": "Transplant Rate Mean", "setting": "isolated embryos; [18]", "result": 83, "unit": "%"}, {"measurement": "Seedling height (overall plant height)", "setting": "isolated embryos; initial testing, TMX 150 or 750 mg/L, 24-hour and 48-hour", "result": "taller"}, {"measurement": "potting rate", "setting": "isolated embryos; initial testing, TMX 150 or 750 mg/L, 24-hour co-treatment", "result": "≥ 80", "unit": "%"}]}
